Patent US7557136B2, “Pyrrolidine derivatives as oxytocin antagonists” (Laboratoires Serono SA, priority 2003, dated 2009)

Biological target: T1, human Oxytocin (hOT) receptor (Homo sapiens, UniProt P30559)
T1 construct: expressed in transfected cells; host or cells: HEK293EBNA (membranes)
T1 sequence (P30559 1-389): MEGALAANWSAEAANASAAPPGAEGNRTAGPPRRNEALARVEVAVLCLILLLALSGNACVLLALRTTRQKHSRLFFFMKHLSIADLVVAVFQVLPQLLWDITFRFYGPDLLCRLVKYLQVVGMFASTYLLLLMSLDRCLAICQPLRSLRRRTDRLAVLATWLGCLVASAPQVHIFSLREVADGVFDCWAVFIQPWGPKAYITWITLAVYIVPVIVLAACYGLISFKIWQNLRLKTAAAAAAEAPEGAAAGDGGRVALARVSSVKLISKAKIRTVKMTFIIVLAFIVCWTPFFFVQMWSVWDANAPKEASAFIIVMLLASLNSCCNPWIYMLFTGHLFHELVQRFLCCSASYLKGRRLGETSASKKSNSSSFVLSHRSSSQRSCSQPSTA
Test: In vitro competition binding assay on hOT receptor with scintillation proximity assay ([125I]-OVTA)
Details: membranes from HEK293EBNA cells expressing the hOT receptor; 0.2 nM [125I]-OVTA; SPA; read-out: Binding Affinity hOT-R (Ki [nM])
Method: The compounds according to formula (I) may be subjected to the following assays: • a) In Vitro Competition Binding Assay on hOT Receptor with Scintillation Proximity Assay (11).
This assay allows to determine the affinity of the test compounds for the human Oxytocin (hOT) receptor. Membranes from HEK293EBNA (cells expressing the hOT receptor) were suspended in buffer containing 50 mM Tris-HCl, pH 7.4, 5 mM MgCl2 and 0.1% BSA (w/v). The membranes (2-4 μg) were mixed with 0.1 mg SPA bead coated with wheat-germ aglutinin (WGA-PVT-Polyethylene Imine beads from Amersham) and 0.2 nM of the radiolabelled [^125I]-OVTA (OVTA being Ornithin Vasoactive, an analogue of OT for competitive binding experiments). Non-specific binding was determined in the presence of 1 μM Oxytocin. The total assay volume was 100 μl. The plates (Corning® NBS plate) were incubated at room temperature for 30 min and counted on a Mibrobeta® plate scintillation counter. Competitive binding was performed in presence of compounds of formula (I) at the following concentrations: 30 μM, 10 μM, 1 μM, 300 nM, 100 nM, 10 nM, 1 nM, 100 pM, 10 pM. The competitive binding data were analysed using the iterative, nonlinear, curve-fitting program, “Prism” (GraphPad Software, Inc).
The ability of pyrrolidine derivatives of formula (I) to inhibit the binding of ^125I-OVTA to the OT-receptor was assessed using the above described in vitro biological assay. Representative values for some example compounds are given in Table I where the binding affinity of test compounds from the above examples is expressed by the inhibition constant (Ki; nM). From these values, it can be derived that said test compounds according to formula (I) do show a significant binding to the oxytocin receptor.

Q: Which Ki does the source give for `CON=C1C[C@@H](CCC(=O)NC[C@@H](O)c2ccccc2)N(C(=O)c2ccc(-c3ccccc3)cc2)C1` [Example 6, 3-[(2R,4EZ)-1-(biphenyl-4-ylcarbonyl)-4-(methoxyimino)pyrrolidin-2-yl]-N-[(2S)-2-hydroxy-2-phenylethyl]propanamide] here?
A: 77 nM

Q: For `CON=C1CC(CC(=O)N2CCOCC2)N(C(=O)c2ccc(-c3ccccc3)cc2)C1` [Example 9, (3EZ,5S)-1-(biphenyl-4-ylcarbonyl-5-(2-morpholin-4yl-2-oxoethyl)pyrrolidin-3-one O-methyloxime], which Ki is on record?
A: 142 nM

Q: Which Ki does the source give for `CON=C1C[C@@H](CC(=O)OC)N(C(=O)c2ccc(-c3ccccc3)cc2)C1` [Example 1, methyl [(2S,4EZ)-1-(biphenyl-4-ylcarbonyl)-4-(methoxyimino)pyrrolidin-2-yl]acetate] here?
A: 37 nM

Q: With `CON=C1C[C@@H](CC(=O)OC2CCCC2)N(C(=O)c2ccc(-c3ccccc3)cc2)C1` [Example 3, cyclopentyl [(2S,4EZ)-1-(biphenyl-4-ylcarbonyl)-4-(methoxyimino)pyrrolidin-2-yl]acetate] as the molecule, how does the Ki read?
A: 46 nM

Q: How did the Ki turn out when `CON=C1CC(CC(=O)NC[C@H](O)c2ccccc2)N(C(=O)c2ccc(-c3ccccc3)cc2)C1` (stereo partly drawn) [Example 5] was run?
A: 67 nM

Q: For `CON=C1CC(CCC(=O)OC)N(C(=O)c2ccc(-c3ccccc3)cc2)C1` [Example 2, methyl 3-[(2R,4EZ)-1-biphenyl-4-ylcarbonyl)-4-(methoxyimino)pyrrolidin-2-yl]propanoate], which Ki is on record?
A: 144 nM
